Values joined by “and” are separate entries in the source; they are usually repeats but may differ in a detail not shown here. Identical values can stand only once.
Assays:
[1] = system: HXB2 site-directed mutant M41L, D67N, K70R, M184V, T215Y; type: cell-based; details: virus M41L
[2] = system: HXB2 site-directed mutant T69S-SG; type: cell-based; details: virus T69S-SG
[3] = system: HXB2 site-directed mutant T69S-AG; type: cell-based; details: virus T69S-AG
[4] = system: HXB2 site-directed mutant T69S-SS; type: cell-based; details: virus T69S-SS
[5] = system: HXB2 site-directed mutant D67N, K70R; type: cell-based; details: virus D67N
wild type HXB2 virus = experiment: HIV drug susceptibility assay (recombinant virus, MT-4 cells); details: for IC50: Human immunodeficiency virus 1, HXB2, MT4, read-out: mean IC50 for the wild type control virus
[6] = system: HXB2 site-directed mutant M41L, T69S-SG, T215Y; type: cell-based; details: virus M41L
[7] = system: HXB2 site-directed mutant M41L, T69S-AG, T215Y; type: cell-based; details: virus M41L
[8] = system: HXB2 site-directed mutant M41L, T215Y; type: cell-based; details: virus M41L
[9] = system: HXB2 site-directed mutant V75T; type: cell-based; details: virus V75T
[10] = system: HXB2 site-directed mutant Q151M; type: cell-based; details: virus Q151M
[11] = system: HXB2 site-directed mutant M41L, T69S-SS, T215Y; type: cell-based; details: virus M41L
[12] = system: HXB2 site-directed mutant M41L, M184V, T215Y; type: cell-based; details: virus M41L

Compound	Fold resistance in IC50 relative to HXB2 [1]	Fold resistance in IC50 relative to HXB2 [2]	Fold resistance in IC50 relative to HXB2 [3]	Fold resistance in IC50 relative to HXB2 [4]	Fold resistance in IC50 relative to HXB2 [5]	IC50 (wild type HXB2 virus)	Fold resistance in IC50 relative to HXB2 [6]	Fold resistance in IC50 relative to HXB2 [7]	Fold resistance in IC50 relative to HXB2 [8]	Fold resistance in IC50 relative to HXB2 [9]	Fold resistance in IC50 relative to HXB2 [10]	Fold resistance in IC50 relative to HXB2 [11]	Fold resistance in IC50 relative to HXB2 [12]	Virus Assay fold resistance (wild type HXB2 virus; wild type HXB2 virus (reference))
Nc1ccn([C@H]2CC[C@@H](CO)O2)c(=O)n1 [ddC, zalcitabine]	5.1 fold	1.7 fold	2.8 fold	3.2 fold	1.3 fold	710 nM	2.8 fold	2.5 fold	2.5 fold	3.0 fold	5.4 fold	1.5 fold	5.0 fold	–
O=c1[nH]cnc2c1ncn2[C@H]1CC[C@@H](CO)O1 [ddI, didanosine]	2.4 fold	2.1 fold	3.8 fold	4.3 fold	0.3 fold	1600 nM	5.0 fold	6.5 fold	0.9 fold	2.5 fold	3.5 fold	2.5 fold	8.0 fold	–
Nc1nc(NC2CC2)c2ncn([C@H]3C=C[C@@H](CO)C3)c2n1 [Abacavir, abacavir]	4.1 fold	4.0 fold	7.0 fold	3.0 fold	1.8 fold	2100 nM	9.6 fold	12.0 fold	4.4 fold	1.8 fold	2.8 fold	4.6 fold	7.1 fold	–
Cc1cn([C@H]2C[C@H](N=[N+]=[N-])[C@@H](CO)O2)c(=O)[nH]c1=O [AZT, zidovudine]	6.4 fold and 6.4 (+/−1.5) fold	8.1 fold and 8.1 (+/−4) fold	7.0 fold and 7.0 (+/−4) fold	–	11 fold and 11.2 fold	12 nM	>96 fold	>96 fold	26 fold and 26.2 fold and 26.2 (+/−10) fold	1.4 fold	2.1 fold	12 fold and 12.0 fold and 12.0 (+/−2) fold	5.2 fold and 5.2 (+/−1.5) fold	1.0 fold
Nc1ccn([C@@H]2CS[C@H](CO)O2)c(=O)n1 [3TC, lamivudine]	>62 fold	2.9 fold	4.2 fold	5.0 fold	1.2 fold	600 nM	11.3 fold	6.1 fold	1.0 fold	3.2 fold	2.0 fold	4.3 fold	>62 fold	–

Source: patent US7087375B1, “Method for determining the mechanism of HIV RT inhibitors” (priority 2000, dated 2006)
